In patent US5061689A, “Zinc bacitracin containing wound dressing” (Bioderm, Inc., priority 1986, dated 1991):

System: epidermal wounds
Test: Effect of bacitracin zinc impregnated foam dressing on epidermal wound healing (Example I)
Format: in vivo, white Yorkshire pigs
Settings: for HT50 (time in days for 50% of wounds to be completely healed): probit analysis
From the text: To test the effect of bacitracin zinc on epidermal resurfacing, approximately 60 rectangular wounds measuring 7 mm wide, 10 mm long, and 0.5 mm deep were made in each of eighteen white Yorkshire pigs in the paravertebral and thoracic areas with a Castroviejo keratome. The electrokeratome was fitted with a razor blade modified so that the cutting edge was reduced to 7 mm. The wounds were separated from one another by at least 15 mm of normal skin.
On each of the experimental animals, approximately one third of the wounds were assigned to one of three treatment groups: (1) control (no treatment), (2) vehicle alone, (low melting point petrolatum 3.0 g) or (3) bacitracin zinc (either 1%, 2.5%, 5%, 7%, 10% or 20% in 3.0 g). A total of 99 wounds on 3 pigs were treated with each of the varying bacitracin zinc combinations. Vehicle was applied to 594 wounds in 18 animals. The other 594 wounds were the untreated controls.
The bacitracin zinc was applied in impregnated foam shortly (within 5 minutes) after wounding on day 0 and once daily thereafter for 7 days. In order to rule out the possibility that wounds made in different anatomical regions heal at different rates the regions used for each treatment group varied for each animal.
Two days after wounding and each day thereafter some of the wounds with surrounding normal skin were excised from each treatment group. The excisions were made with a Castroviejo keratome fitted with a 22 mm blade, set to cut at a depth of 0.7 mm. After incubating the specimens in 2N sodium bromide at 37° C. for three hours, the epidermis was separated from the dermis and the epidermal sheet (22 sq mm) was assessed for re-epithelialization as previously described. Briefly, this method is a macroscopic examination of the separated epidermis for defects. Defects are visualized as holes in the separated epidermal sheet or as a lack of epidermal continuum in the area that contain the wound. The wound is considered re-epithelialized if there are no defects in the epidermis and not re-epithelialized if there are one or more defects.
The time needed for 50% of the wounds in each experimental animal to heal HT50) has been estimated from curves generated by probit analysis of the data presented in Table I. The HT50 values and the relative rate of healing are compared in Table II. Wounds treated with 7% bacitracin zinc healed 46% more rapidly than untreated wounds and 28% faster than wounds treated with the ointment alone. Vehicle treated wounds healed approximately 25% faster than wounds left open to the air.

bacitracin zinc was tested, and the “rate of healing Compared with Untreated” value (1% bacitracin zinc) was “+23%”, the “rate of healing Compared with Vehicle” value (1% bacitracin zinc) was 0% and the “% of wounds healed” value (1% bacitracin zinc in impregnated foam, day 2 after wounding) was 0%. For the same substance, the “% of wounds healed” value (1% bacitracin zinc in impregnated foam, day 3 after wounding) was 0%, the “% of wounds healed” value (1% bacitracin zinc in impregnated foam, day 4 after wounding) was 40% and the “% of wounds healed” value (1% bacitracin zinc in impregnated foam, day 5 after wounding) was 58%. For the same substance, the “% of wounds healed” value (1% bacitracin zinc in impregnated foam, day 6 after wounding) was 95%, the “% of wounds healed” value (1% bacitracin zinc in impregnated foam, day 7 after wounding) was 100% and the “HT50 (time in days for 50% of wounds to be completely healed)” value (1% bacitracin zinc) was 4.5 days. The “rate of healing Compared with Untreated” value (2.5% bacitracin zinc) was “+25%”, the “rate of healing Compared with Vehicle” value (2.5% bacitracin zinc) was 2% and the “% of wounds healed” value (2.5% bacitracin zinc in impregnated foam, day 2 after wounding) was 0%. For the same substance, the “% of wounds healed” value (2.5% bacitracin zinc in impregnated foam, day 3 after wounding) was 0%, the “% of wounds healed” value (2.5% bacitracin zinc in impregnated foam, day 4 after wounding) was 36% and the “% of wounds healed” value (2.5% bacitracin zinc in impregnated foam, day 5 after wounding) was 60%. For the same substance, the “% of wounds healed” value (2.5% bacitracin zinc in impregnated foam, day 6 after wounding) was 96%, the “% of wounds healed” value (2.5% bacitracin zinc in impregnated foam, day 7 after wounding) was 100% and the “HT50 (time in days for 50% of wounds to be completely healed)” value (2.5% bacitracin zinc) was 4.4 days. For the same substance, the “rate of healing Compared with Untreated” value (5.0% bacitracin zinc) was “+34%”, the “rate of healing Compared with Vehicle” value (5.0% bacitracin zinc) was 13% and the “% of wounds healed” value (5.0% bacitracin zinc in impregnated foam, day 2 after wounding) was 0%. The “% of wounds healed” value (5.0% bacitracin zinc in impregnated foam, day 3 after wounding) was 11%, the “% of wounds healed” value (5.0% bacitracin zinc in impregnated foam, day 4 after wounding) was 54% and the “% of wounds healed” value (5.0% bacitracin zinc in impregnated foam, day 5 after wounding) was 77%. For the same substance, the “% of wounds healed” value (5.0% bacitracin zinc in impregnated foam, day 6 after wounding) was 95%, the “% of wounds healed” value (5.0% bacitracin zinc in impregnated foam, day 7 after wounding) was 100% and the “HT50 (time in days for 50% of wounds to be completely healed)” value (5.0% bacitracin zinc) was 3.9 days. For the same substance, the “rate of wound re-epithelialization compared with both untreated and vehicle treated wounds” value (7% bacitracin zinc) was “significantly greater”, the “rate of healing Compared with Untreated” value (7.0% bacitracin zinc) was “+46%” and the “rate of healing Compared with Vehicle” value (7.0% bacitracin zinc) was 28%. For the same substance, the “% of wounds healed” value (7.0% bacitracin zinc in impregnated foam, day 2 after wounding) was 0%, the “% of wounds healed” value (7.0% bacitracin zinc in impregnated foam, day 3 after wounding) was 36% and the “% of wounds healed” value (7.0% bacitracin zinc in impregnated foam, day 4 after wounding) was 70%. The “% of wounds healed” value (7.0% bacitracin zinc in impregnated foam, day 5 after wounding) was 98%, the “% of wounds healed” value (7.0% bacitracin zinc in impregnated foam, day 6 after wounding) was 100% and the “% of wounds healed” value (7.0% bacitracin zinc in impregnated foam, day 7 after wounding) was 100%. The “rate of healing Compared with Untreated” value (7.0% bacitracin zinc, listed as bacitracin zinc) was 46%, the “HT50 (time in days for 50% of wounds to be completely healed)” value (7.0% bacitracin zinc) was 3.2 days and the “rate of healing Compared with Untreated” value (10.0% bacitracin zinc) was “+19%”. For the same substance, the “rate of healing Compared with Vehicle” value (10.0% bacitracin zinc) was -6%, the “% of wounds healed” value (10.0% bacitracin zinc in impregnated foam, day 2 after wounding) was 0% and the “% of wounds healed” value (10.0% bacitracin zinc in impregnated foam, day 3 after wounding) was 2%. For the same substance, the “% of wounds healed” value (10.0% bacitracin zinc in impregnated foam, day 4 after wounding) was 33%, the “% of wounds healed” value (10.0% bacitracin zinc in impregnated foam, day 5 after wounding) was 66% and the “% of wounds healed” value (10.0% bacitracin zinc in impregnated foam, day 6 after wounding) was 92%. The “% of wounds healed” value (10.0% bacitracin zinc in impregnated foam, day 7 after wounding) was 100%, the “HT50 (time in days for 50% of wounds to be completely healed)” value (10.0% bacitracin zinc) was 4.8 days and the “rate of healing Compared with Untreated” value (20.0% bacitracin zinc) was “+19%”. The “rate of healing Compared with Vehicle” value (20.0% bacitracin zinc) was -6%, the “% of wounds healed” value (20.0% bacitracin zinc in impregnated foam, day 2 after wounding) was 0% and the “% of wounds healed” value (20.0% bacitracin zinc in impregnated foam, day 3 after wounding) was 0%. For the same substance, the “% of wounds healed” value (20.0% bacitracin zinc in impregnated foam, day 4 after wounding) was 42%, the “% of wounds healed” value (20.0% bacitracin zinc in impregnated foam, day 5 after wounding) was 58% and the “% of wounds healed” value (20.0% bacitracin zinc in impregnated foam, day 6 after wounding) was 96%. The “% of wounds healed” value (20.0% bacitracin zinc in impregnated foam, day 7 after wounding) was 100%, the “HT50 (time in days for 50% of wounds to be completely healed)” value (20.0% bacitracin zinc) was 4.8 days and the effect on healing (levels higher than 5% to 8% bacitracin zinc) was “tend in inhibit rather than promote healing”. For the same substance, the “rate of wound re-epithelialization compared with ointment vehicle treated wounds” value (the other concentrations of bacitracin zinc (1%, 2.5%, 5%, 10%, 20%)) was “no significant difference”.
